Measured values as given in US8158621B2, “Methods of treating or preventing autoimmune diseases with 2,4-pyrimidinediamine compounds” (Rigel Pharmaceuticals, Inc., priority 2002, dated 2012).
Like-named read-outs stand apart in the source and are kept apart here.

Tested on: Human Jurkat T-cells (clone N)
Assay: Jurkat T-cell activation (anti-TCR, CD69 upregulation)
Format: cell-based
Method in brief: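 Readout is CD69 upregulation by flow cytometry (anti-CD69-APC, 20 min at 4 °C) after 20 h anti-TCR (C305, 500 ng/ml) stimulation at 37 °C.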

SMILES	IC50 [µM]	other results
CCOC(=O)c1cnc(N[C@@H](Cc2ccccc2)C(=O)OCC)nc1N[C@@H](Cc1ccccc1)C(=O)OCC [Compound R926526]	> 10	–
CCOC(=O)c1cnc(N[C@H](C(=O)OCC)C(C)C)nc1N[C@H](C(=O)OCC)C(C)C [Compound R926527]	21.2	–
CCOC(=O)c1cnc(Nc2cccc(O)c2)nc1N[C@@H](Cc1ccccc1)C(=O)OCC [Compound R926528]	> 10	–
O=C(O)c1cnc(Nc2cccc(O)c2)nc1NC(C(=O)O)c1ccccc1 (stereo not shown) [Compound R926535]	> 10	–
CCOC(=O)COc1ccc(Nc2nc(Cl)cc(NCC(=O)OC)n2)cc1 [Compound R926555]	> 10	–
COC(=O)c1cnc(Nc2ccc(OCC(=O)N3CCCC3)cc2)nc1Nc1ccc(OCC(=O)N2CCCC2)cc1 [Compound R926559]	11.2	–
O=C(O)COc1ccc(Nc2ncc(F)c(Nc3ccc(OCC(=O)O)cc3)n2)cc1 [Compound R926560]	> 10	–
O=C(COc1ccc(Nc2ncc(F)c(Nc3ccc(OCC(=O)N4CCCC4)cc3)n2)cc1)N1CCCC1 [Compound R926563]	> 10	–
O=C(O)COc1ccc(Nc2ncc(F)c(Nc3cccc(O)c3)n2)cc1 [Compound R926564]	> 10	–
CCOC(=O)COc1ccc(Nc2nc(Nc3ccc(OCC(=O)OCC)cc3)c([N+](=O)[O-])c(C(=O)OCC)n2)cc1 [Compound R926566]	> 10	–
CCOC(=O)COc1ccc(Nc2nc(Nc3ccc(OCC(=O)OCC)cc3)c(N)c(C(=O)OCC)n2)cc1 [Compound R926567]	> 10	–
CCOC(=O)COc1ccc(Nc2nc(Cl)c(Cl)c(Nc3ccc(OCC(=O)OCC)cc3)n2)cc1 [Compound R926569]	> 10	–
CCOC(=O)COc1ccc(Nc2nc(Nc3ccc(OCC(=O)OCC)cc3)c(NC(=O)Nc3ccccc3)c(C(=O)OCC)n2)cc1 [Compound R926571]	> 10	–
COC(=O)COc1ccc(Nc2ncc(F)c(Nc3ccc(OCC(=O)OC(C)(C)C)cc3)n2)cc1 [Compound R926572]	> 10	–
CC(C)(C)OC(=O)COc1ccc(Nc2ncc(F)c(Nc3ccc(OCC(=O)OC(C)(C)C)cc3)n2)cc1 [Compound R926574]	> 10	–
CC(C)(C)OC(=O)COc1ccc(Nc2nc(Cl)c(Cl)c(Nc3ccc(OCC(=O)OC(C)(C)C)cc3)n2)cc1 [Compound R926576]	> 10	–
C=CCNC(=O)Nc1c(Nc2ccc(OCC(=O)OCC)cc2)nc(Nc2ccc(OCC(=O)OCC)cc2)nc1C(=O)OCC [Compound R926585]	> 10	–
CCOC(=O)COc1ccc(Nc2nc(Nc3ccc(OCC(=O)OCC)cc3)c(NC(=O)NC(=O)OCC)c(C(=O)OCC)n2)cc1 [Compound R926586]	> 10	–
CCOC(=O)CNC(=O)Nc1c(Nc2ccc(OCC(=O)OCC)cc2)nc(Nc2ccc(OCC(=O)OCC)cc2)nc1C(=O)OCC [Compound R926587]	> 10	–
CCOC(=O)COc1ccc(Nc2nc(Nc3ccc(OCC(=O)OCC)cc3)c(NC(=O)NC3CCCC3)c(C(=O)OCC)n2)cc1 [Compound R926588]	> 10	–
CCOC(=O)COc1ccc(Nc2nc(Nc3ccc(OCC(=O)OCC)cc3)c(NC(=O)NC(=O)CCl)c(C(=O)OCC)n2)cc1 [Compound R926589]	> 10	–
Oc1cccc(Nc2nc(Cl)c(Cl)c(Nc3cccc(O)c3)n2)c1 [Compound R926591]	–	IC50 (Homo sapiens, Jurkat): > 10 µM
COC(=O)c1cc2cc(Nc3ncc(F)c(Nc4ccc5[nH]c(C(=O)OC)cc5c4)n3)ccc2[nH]1 [Compound R926593]	1.28	–
Fc1cnc(Nc2ccc3cc[nH]c3c2)nc1Nc1ccc2cc[nH]c2c1 [Compound R926594]	–	IC50 (Homo sapiens): 1.25 µM
CSc1nc(Nc2cccc(O)c2)nc(Nc2cccc(O)c2)c1Cl [Compound R926595]	> 10	–
COC(=O)c1cc2cc(Nc3ncc(F)c(Nc4ccc5oc(C(=O)OC)cc5c4)n3)ccc2o1 [Compound R926604]	–	IC50 (Homo sapiens, Jurkat): > 10 µM
COC(=O)Cc1ccc(Nc2ncc(F)c(Nc3ccc(CC(=O)OC)cc3)n2)cc1 [Compound R926605]	–	IC50 (Homo sapiens, Jurkat): > 10 µM
CCOC(=O)c1cc2cc(Nc3ncc(F)c(Nc4cccc(O)c4)n3)ccc2[nH]1 [Compound R926615]	–	IC50 (Homo sapiens, Jurkat): 1.87 µM
